Converted amounts (≈) assume the structure as drawn. The source made the active and inactive calls. The calls are words filed in the database; no cut-off is given here.
How the values were obtained:
Bacillus subtilis [1] = experiment: Activity of Bacillus subtilis N-terminal His-tagged ANT(6) expressed in Escherichia coli BL21(DE3) cells assessed as adenylated product by Michaelis-Menten kinetics
Bacillus subtilis [2] = experiment: Activity of Bacillus subtilis N-terminal His-tagged ANT(6) expressed in Escherichia coli BL21(DE3) cells assessed as ratio of Kcat to Km of adenylated product by Michaelis-Menten kinetics
Escherichia coli [3] = experiment: Antibacterial activity against Escherichia coli BL21(DE3) expressing Bacillus subtilis N-terminal His-tagged ANT(6) incubated for 12 hrs; type: functional
Escherichia coli [4] = experiment: Antibacterial activity against Escherichia coli incubated for 12 hrs; type: functional
Escherichia coli [5] = experiment: Antibacterial activity against Escherichia coli BL21(DE3) harboring pET plasmid incubated for 12 hrs; type: functional
Serratia marcescens = experiment: Activity of Serratia marcescens ANT(3'')-1i/AAC(6')-2d expressed in Escherichia coli BL21(DE3) cells assessed as ratio of Kcat to Km of ANT(3'')-1i domain catalysed adenylated product by steady state kinetic analysis
Escherichia coli [6] = experiment: Antibacterial activity against Escherichia coli; type: functional
Escherichia coli [7] = experiment: Antibacterial activity against Escherichia coli BL21(DE3) harboring pET plasmid in streptidine; type: functional
Escherichia coli [8] = experiment: Antibacterial activity against Escherichia coli BL21(DE3) expressing ANT(6); type: functional
Escherichia coli [9] = experiment: Antibacterial activity against Escherichia coli BL21(DE3); type: functional
Escherichia coli [10] = experiment: Antibacterial activity against Escherichia coli incubated for 12 hrs in presence of 2-deoxystreptidine; type: functional
Escherichia coli [11] = experiment: Antibacterial activity against Escherichia coli BL21(DE3) expressing Bacillus subtilis N-terminal His-tagged ANT(6) incubated for 12 hrs in presence of 2-deoxystreptidine; type: functional
Escherichia coli [12] = experiment: Antibacterial activity against Escherichia coli BL21(DE3) harboring pET plasmid incubated for 12 hrs in presence of 2-deoxystreptidine; type: functional
Escherichia coli [13] = experiment: Antibacterial activity against Escherichia coli in presence of streptidine; type: functional
Escherichia coli [14] = experiment: Antibacterial activity against Escherichia coli BL21(DE3) expressing Bacillus subtilis N-terminal His-tagged ANT(6) in presence of streptidine; type: functional

## Nc1ncnc2c1ncn2[C@@H]1O[C@H](COP(=O)(O)OP(=O)(O)O)[C@@H](O)[C@H]1O
Bacillus subtilis [1]
  Activity: inactive

## N=C(N)N[C@@H]1[C@@H](O)[C@H](NC(=N)N)[C@@H](O)[C@H](O)[C@H]1O
Bacillus subtilis [2]
  kcat/Km: 1.2 M⁻¹ s⁻¹
Escherichia coli [3]
  MIC90: > 200 µg/mL
Bacillus subtilis [1]
  Km: 600 µM
  kcat: 0.0006 s⁻¹
Escherichia coli [4]
  MIC90: > 100 µg/mL
Escherichia coli [5]
  MIC90: > 100 µg/mL

## CN[C@@H]1[C@H](O[C@H]2[C@H](O[C@H]3[C@H](O)[C@@H](O)[C@H](N=C(N)N)[C@@H](O)[C@@H]3N=C(N)N)O[C@@H](C)[C@]2(O)C=O)O[C@@H](CO)[C@H](O)[C@H]1O [STREPTOMYCIN]
Serratia marcescens
  kcat/Km: 3.2 ×10⁵ /s/M
Escherichia coli [6]
  MIC90: 5 µg/mL (≈ 8.6 µM)
Escherichia coli [7]
  MIC90: 5 µg/mL (≈ 8.6 µM)
Escherichia coli [8]
  MIC90: > 200 µg/mL
Bacillus subtilis [2]
  kcat/Km: 9.2 ×10² /s/M
Escherichia coli [9]
  MIC90: 5 µg/mL (≈ 8.6 µM)
Escherichia coli [10]
  MIC90: 2 µg/mL
Bacillus subtilis [1]
  Km: 38 µM
  kcat: 0.03 s⁻¹
Escherichia coli [11]
  MIC90: 100 µg/mL
Escherichia coli [12]
  MIC90: 100 µg/mL
Escherichia coli [13]
  MIC90: 5 µg/mL
Escherichia coli [14]
  MIC90: 10 µg/mL

## O=c1ccn([C@@H]2O[C@H](COP(=O)(O)OP(=O)(O)OP(=O)(O)O)[C@@H](O)[C@H]2O)c(=O)[nH]1
Bacillus subtilis [1]
  Activity: Active

## Nc1ncnc2c1ncn2[C@@H]1O[C@H](COP(=O)(O)O)[C@@H](O)[C@H]1O
Bacillus subtilis [1]
  Activity: inactive

## Nc1ncnc2c1ncn2[C@@H]1O[C@H](COP(=O)(O)OP(=O)(O)OP(=O)(O)O)[C@@H](O)[C@H]1O
Bacillus subtilis [2]
  kcat/Km: 2.1 ×10² /s/M
Bacillus subtilis [1]
  Activity: Active
  Km: 84 µM
  kcat: 0.018 s⁻¹

## Nc1ccn([C@@H]2O[C@H](COP(=O)(O)OP(=O)(O)OP(=O)(O)O)[C@@H](O)[C@H]2O)c(=O)n1
Bacillus subtilis [1]
  Activity: Active

## Nc1ncnc2c1ncn2[C@@H]1O[C@H](COP(=O)(O)CP(=O)(O)OP(=O)(O)O)[C@@H](O)[C@H]1O
Bacillus subtilis [1]
  Activity: inactive

## NC[C@H]1O[C@H](O[C@H]2[C@H](O)[C@@H](O[C@H]3O[C@H](CO)[C@@H](O)[C@H](N)[C@H]3O)[C@H](N)C[C@@H]2N)[C@H](O)[C@@H](O)[C@@H]1O
Bacillus subtilis [1]
  Activity: inactive

## N[C@@H]1C[C@H](N)[C@@H](O)[C@H](O)[C@H]1O
Escherichia coli [3]
  MIC90: > 100 µg/mL
Escherichia coli [4]
  MIC90: > 100 µg/mL

## Nc1nc2c(ncn2[C@@H]2O[C@H](COP(=O)(O)OP(=O)(O)OP(=O)(O)O)[C@@H](O)[C@H]2O)c(=O)[nH]1
Bacillus subtilis [1]
  Activity: Active

## NC[C@H]1O[C@H](O[C@H]2[C@H](O[C@@H]3O[C@H](CO)[C@@H](O)[C@H]3O)[C@@H](O)[C@H](N)C[C@@H]2N)[C@H](N)[C@@H](O)[C@@H]1O
Bacillus subtilis [1]
  Activity: inactive
